For test [1], the target named is T1, Aβ40 (Homo sapiens, UniProt P05067).
T1 construct: mouse 6e10 primary antibody which recognizes the first 16 amino acids of Aβ1-40
The experiment in a line: Thioflavin T (ThT) assay of Aβ40 aggregation. The class given is biochemical.
Procedure: Aggregation control (100%) is set as the change of fluorescence of 2.5 μM Aβ40 in Tris (pH 7.5) buffer. The concentration of ThT is 5 μM. Excitation: 440 nm; emission: 482 nm. These two sequences were investigated for their capability to inhibit the aggregation of Aβ40 by ThT assay. […] Compounds in different concentrations in Tris buffer Saline (TBS, pH 7.5) containing 10 μM ThT were added into a black 96 well plate corning@3721. Aβ40 monomer was freshly thawed and used to make a stock solution in TBS with a concentration of 5 μM. Equal volume of Aβ solution was added into the 96 well palate (final Aβ concentration was 2.5 μM). Time-dependent fluorescence change was monitored by a Synergy 2 plate reader at an excitation wavelength of 440 nm and emission at 482 nm. After 24 h, the fluorescence change was recorded. 100% aggregation is the fluorescence change of 2.5 μM Aβ40 in TBS buffer containing 5 μM ThT.

Test [2] addresses T1, Aβ40. Put plainly: Transmission electron microscopy (TEM) of Aβ40 fibrils. The class given is biochemical. To be noted: HW-155-1 5 μM, 24 h. As for the experimental part:
FIGS. 15A-15D are TEM images illustrating monomeric Aβ40 in the absence (FIG. 15A) and presence (FIG. 15B) of HW-155-1 after 24 h and pre-aggregated Aβ40 in the absence (FIG. 15C) and presence (FIG. 15D) of HW-155-1 after 24 h. Bar=[…]; Aβ40 is 2.5 μM; and HW-155-1 is 5 μM. The ability of HW-155-1 to prevent Aβ aggregation was further confirmed by TEM (FIGS. 15A and 15B). In fact, HW-155-1 can even disassemble pre-formed Aβ fibrils (FIGS. 15C and 15D). In these experiments, the Aβ fibrils were not seen for 24 h after incubating HW-155-1 with Aβ40 monomers (prevention of aggregation) and pre-formed Aβ40 aggregates (disassembling aggregation). Aβ40 preparations were adsorbed onto 200-mesh copper grids for 1 hour (until it is dry), and then stained with 1% uranyl acetate for 20 sec. The excess fluid was removed and the grids were analyzed with FEI Morgagni 268D TEM operated at 60 kV.

The next test has as its system N2a neuroblastoma cells. The experiment in a line: MTT toxicity assay: Aβ42 aggregates on N2a cells. It counts as cell-based. The settings on record: final Aβ 1 μM, 24 h. Here is the method: FIG. 16 is a bar graph illustrating detoxification of Aβ42 aggregates by HW-155-1. N2a cells were cultured with 1 μM of pre-aggregated Aβ42 in the absence/presence of HW-155-1 for 24 h.
The effect of HW-155-1 on the toxicity of Aβ aggregates towards N2a neuroblastoma cells was then examined. […] In contrast, pre-incubation of 0.5 equiv. of HW-155-1 with Aβ42 reduces the death of N2a cells to 25%, while the presence of 1 equiv.
In siliconized tubes, Aβ42 peptide of 10 μM (in F-12 medium) were pre-incubated with 0, 0.5 and 1 equiv. HW-155-1 AApeptide, respectively. These solutions were incubated on rotating shaker (Barnstead 400100) at 8 rpm in 37° C. for 24 h. Meanwhile, N2a cells were plated in 96-well plates (10000 cells/well) with triple replications for 24 h. Then pre-aggregated mixtures were added into each well to make the final Aβ concentration at 1 μM. The plate was incubated for another 24 h. Next, 10 μL MTT reagent was added to the cells. The plate was incubated for 4 h at 37° C. After the addition of 100 μL solubilization solution and incubation overnight, OD values were read at 575 nm. The final cell viability was calculated as: Cell viability %=(OD575−OD blank)/(ODctrl−OD blank)×100%.
(In general: Tetrazolium dyes change colour on reduction, which living cells bring about.)

The target in a further test is T2, Aβ40 peptide (Homo sapiens, UniProt P05067).
T2 construct: mouse 6e10 primary antibody which recognizes the first 16 amino acids of Aβ1-40
T2 sequence (P05067 672-711 limits assumed): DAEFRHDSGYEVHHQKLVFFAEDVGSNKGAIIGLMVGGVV
The experiment in a line: On-bead screening of OBOC γ-AApeptide library against Aβ40 peptide. To be noted: Aβ40 20 ug/mL, 6e10 antibody, anti-mouse IgG-dylight 549. It counts as binding. Here is the method: The γ-AApeptide library was screened to identify ligands that can bind to Aβ. The anti-aggregation efficiency of identified ligands was determined by functional assay afterwards. Thus, beads were incubated with the Aβ40 peptide, followed by the treatment of anti-Aβ antibody 6E10 (FIG. 10). Then, anti-mouse IgG-dylight 549 conjugate was added. Dylight 549 produces strong orange fluorescence, a region in which TentaGel beads have low background fluorescence (see Aquino, C. supra, 4, which is incorporated by reference herein regarding properties of TentaGel beads). The dye is also much less expensive than quantum dots. […]
In order to avoid any possible nonspecific binding, both the Aβ and antibodies solution were made in 1% BSA/TBST blocking buffer. […] The beads were washed with PBST completely and transferred into a 6-well plate to be observed under Zeiss inverted fluorescence microscope 10×43HE filter, and the orange bright beads were picked up for they had suspicious nonspecific binding.
The rest of the beads were pulled together, washed with PBST, and then treated with 1% SDS at 90° C. for ten minutes to remove any bound proteins. […] After washing and equilibrating in TBST overnight, the beads were ready for actual Aβ screening. […]
The beads were collected and washed with 1×PBST three times. […] Washed with water, DMSO, and acetonitrile, beads were then cleaved and analyzed using previous procedure. […]

We go through 1 molecule from patent US10022420B2, “Methods of synthesizing γ-AApeptides, γ-AApeptide building blocks, γ-AApeptide libraries, and γ-AApeptide inhibitors of Aβ40 aggregates” (UNIVERSITY OF SOUTH FLORIDA, priority 2013, dated 2018).

The term inhibition denotes the change of the read-out against control, counted positive when it falls.

T1 sequence (P05067 672-711 limits assumed): as above

`C=CCOC(=O)N(CC(=O)N[C@@H](Cc1ccccc1)CN(CC(=O)N[C@@H](CCCCN)CN(CC(=O)N[C@@H](CC(C)C)CN(CC(N)=O)C(=O)CC(C)C)C(=O)CC(C)C)C(=O)CCc1ccccc1)C[C@@H](N)CCCCN` [HW-155-1]: the inhibition at 1 µM at Aβ40 [1] (1 μM compound, 2.5 μM Aβ40, first 2 h of incubation (FIG. 14B), read-out: inhibition of Aβ aggregation) is around 50%. Also, the “potency relative to KLVFF” value on Aβ40 [1] (ThT assay, Aβ40) was “at least 100 fold”. For the same molecule, the “Aβ fibrils by TEM, prevention of aggregation” value at Aβ40 [2] (Aβ40 monomers 2.5 μM) is recorded as “not seen”. Moreover, the “Aβ fibrils by TEM, disassembling aggregation” value at Aβ40 [2] (pre-formed Aβ40 aggregates 2.5 μM) is “not seen”. The “death of N2a cells” value in the test with N2a neuroblastoma cells (0.5 equiv. compound pre-incubated with Aβ42, Aβ42 alone kills 30%) amounted to 25%. Further, the “toxicity of Aβ42 / death of N2a cells” value with N2a neuroblastoma cells (1 equiv. compound pre-incubated with Aβ42) is recorded as “almost completely removes the toxicity”. On Aβ40 peptide, the “on-bead binding to Aβ40 (screening outcome)” value is reported as “hit”.
